Data on four compounds can be found in ChEMBL document CHEMBL3045324, “5-phenyl-1-benzofuran-2-yl derivatives: synthesis, antimicrobial, and antioxidant activity” (2013).

The subject of experiment [1] is Bacillus subtilis. Kind of experiment: Antibacterial activity against Bacillus subtilis NCTC 10400 assessed as growth inhibition after 24 hr. In kind it is functional. To be noted: NCTC 10400, 24 h.
The subject of experiment [2] is Radical scavenging activity. Kind of experiment: Antioxidant activity assessed as DPPH radical scavenging activity at 1 mg/mL after 15 min UV-vis spectrophotometric analysis relative to control. In kind it is functional. (DPPH is a stable violet radical that fades when it is reduced.)
Experiment [3] concerns Staphylococcus aureus. Kind of experiment: Antibacterial activity against Staphylococcus aureus NCTC 10788 assessed as growth inhibition after 24 hr. In kind it is functional. The note with it: NCTC 10788, 24 h.
Experiment [4] has as its system Staphylococcus aureus. The experiment in a line: Antibacterial activity against Staphylococcus aureus NCTC 10788 assessed as growth inhibition at 50 mg/mL after 24 hr. It is filed as functional. To be noted: NCTC 10788, 24 h, read-out: IZ.
The test system of experiment [5] is Escherichia coli. Kind of experiment: Antibacterial activity against Escherichia coli NCTC 12923 assessed as growth inhibition at 50 mg/mL after 24 hr. In kind it is functional. To be noted: NCTC 12923, 24 h, read-out: IZ.
The test system of experiment [6] is Bacillus subtilis. Kind of experiment: Antibacterial activity against Bacillus subtilis NCTC 10400 assessed as growth inhibition at 50 mg/mL after 24 hr. It is filed as functional. The note with it: NCTC 10400, 24 h, read-out: IZ.
Experiment [7] deals with Escherichia coli. The experiment in a line: Antibacterial activity against Escherichia coli NCTC 12923 assessed as growth inhibition at 1 to 50 mg/mL after 24 hr. It is filed as functional, organism-based.
In experiment [8] the test system is Candida albicans. The experiment in a line: Antifungal activity against Candida albicans NCPF 3179 assessed as growth inhibition at 50 mg/mL after 3 days. It is filed as functional. The note with it: NCPF 3179, 72 h, read-out: IZ.
Experiment [9] deals with Candida albicans. The experiment in a line: Antifungal activity against Candida albicans NCPF 3179 assessed as growth inhibition after 3 days. It is filed as functional. The note with it: NCPF 3179, 72 h.
Experiment [10] relates to Escherichia coli. The experiment in a line: Antibacterial activity against Escherichia coli NCTC 12923 assessed as growth inhibition after 24 hr. It is filed as functional. The note with it: NCTC 12923, 24 h.

≈ marks a conversion by molar mass, not a printed value. Calls of active or inactive are those of the source. No cut-off for these calls is given here.

The term MIC denotes the least concentration at which growth counts as inhibited.

In the case of `C=Cc1ccc(-c2ccc(C(=O)c3cc4cc(-c5ccc(C=C)cc5)ccc4o3)cc2)cc1`, the MIC in [1] was found to be 50 µg/mL (≈ 117 µM); in experiment [3], 250 µg/mL (≈ 586 µM); in [9] it was 500 µg/mL (≈ 1170 µM). Also, the Activity in experiment [2] is 33.7%. The zone of inhibition at 50000 µg/mL in experiment [4] was 10 mm; in experiment [5], 0 mm; in experiment [6] it was 16 mm; in experiment [8], 6 mm. In [7], the “growth inhibition (GI)” value is “inactive”.
As for `CS(=O)(=O)c1cccc(-c2ccc(C(=O)c3cc4cc(-c5cccc(S(C)(=O)=O)c5)ccc4o3)cc2)c1`, the MIC in experiment [1] and in experiment [9] was 500 µg/mL (≈ 942 µM) in each case. The Activity in experiment [2] worked out at 12.3%. The zone of inhibition at 50000 µg/mL stood at 0 mm in experiment [4], 0 mm in [5], 16 mm in [6] and 6 mm in experiment [8]. For the same compound, the “growth inhibition (GI)” value in experiment [7] was “inactive”.
Consider `O=C(c1ccc(-c2ccccc2)cc1)c1cc2cc(-c3ccccc3)ccc2o1`, for which the MIC in experiment [1] worked out at 10 µg/mL (≈ 26.7 µM); in [3], 1 µg/mL (≈ 2.67 µM); in experiment [9], 10 µg/mL (≈ 26.7 µM). Further, in experiment [2], the Activity is 7.3%. The zone of inhibition at 50000 µg/mL in [4] stood at 15 mm; in experiment [5], 0 mm; in experiment [6] it was 22 mm; in experiment [8], 10 mm. In experiment [7], the “growth inhibition (GI)” value was “inactive”.
As to `O=C(c1ccc(Br)cc1)c1cc2cc(Br)ccc2o1`, the MIC in [1], in experiment [10], in [3] and in [9] was 50 µg/mL (≈ 132 µM) in each case. Also, the Activity in [2] was 11.7%. For the same compound, the zone of inhibition at 50000 µg/mL in experiment [4] stood at 23 mm; in experiment [5], 17 mm; in [6] it was 24 mm; in [8] it was 15 mm.
